Patent US10273240B2, “Cortistatin analogues, syntheses, and uses thereof” (President and Fellows of Harvard College, priority 2015, dated 2019)

Key:
[1] = Pharmacokinetic study in mice; format: in vivo; settings: once-daily intraperitoneal (IP) dosing
Method: In Vivo Studies. Studies were performed at Charles River Laboratories (CRL) and Dana Farber Cancer Institute (DFCI) where indicated and approved by Harvard University and each institution's respective animal care and use committee. For pharmacokinetic studies, serial blood samples from 7 week old male CD-1 mice (n=3 per timepoint) were collected (no blinding) into K2EDTA tubes, centrifuged, transferred into 96-well plates (matrix tubes), stored at −20° C., and analysed by HPLC/MS/MS (in-life performed at CRL). Study size was determined by the need for three blood samples per timepoint with three blood samples collected per mouse. The MV4; 11 xenograft model were performed as previously described (Etchin, J. et al. Antileukemic activity of nuclear export inhibitors that spare normal hematopoietic cells. Leukemia 27, 66-74 (2013); in-life performed at DFCI) Two million MV4;11-mCLP cells were injected into the tail vein of 7-week-old female NOD-SCID-IL2Rcγ^null (NSG) mice (The Jackson Laboratory) and tumor burden was assessed by bioluminescence imaging (BLI) using an IVIS Spectrum system (Caliper Life Sciences). […] After 30 days, blood counts were obtained (Hemavet 950 F, Drew Scientific) and spleen, femur, and peripheral blood cells were collected and analysed by flow cytometry (LSR Fortessa, BD Biosciences) from 3 mice/group. […]

[2] = system: MEG-01; assay: Cell growth assay, MEG-01; format: cell-based; settings: Homo sapiens, MEG-01, 240 h; CA, after 10 days; read-out: Mean GI50 (nM), MEG-01
Method: (§1) Cell Culture. All media was supplemented with 100 U/mL penicillin and 100 μg/mL streptomycin. Human cancer cell lines were grown in the following media: MV4; 11, RS4; 11, K562, HEL, MOLM-14, MEG-01 in RPMI-1640, 10% FBS; SET-2 in RPMI-1640, 20% FBS; UKE-1 in RPMI-1640, 10% FBS, 10% horse serum and 1 μM hydrocortisone; SKNO-1 and TF-1 in RPMI-1640, 10% FBS, and 10 or 2 ng/mL GM-CSF, respectively; HaCaT in DMEM, 10% FBS; and HCT116 in McCoy's 5 A, 10% FBS (proliferation assay) or DMEM, 10% FBS (gene expression study). HepG2, MV4;11, RS4;11, MEG-01, TF-1, HCT116 and K562 were from ATCC. SKNO-1 was from DSMZ. HEL, UKE-1, and SET-2 were provided by Ross L. Levine and HaCaT, MV4;11-mCLP, and MOLM-14 by Van Wilson, Andrew L. Kung, and Scott A. Armstrong, respectively. MOLM-14 cells were authenticated by STR profiling and flow cytometry and all cell lines were routinely tested and found to be negative for mycoplasma.

[3] = system: myeloid, mixed-lineage, and megakaryoblastic leukemia cell lines; assay: Cell growth assay, leukemia cell lines in general; format: cell-based; settings: Homo sapiens, 240 h; 10-day treatment
[4] = system: HEL; assay: Cell growth assay, HEL; format: cell-based; settings: Homo sapiens, 240 h, CA, after 10 days, read-out: Mean GI50 (nM), HEL
Method: as §1

[5] = system: STAT1 S727 phosphorylation; assay: IFN-γ-stimulated STAT1 S727 phosphorylation immunoblot; format: cell-based, human; settings: MOLM-14 cells
Method: Kinase Assays. Data was quantified with ImageJ and plotted and fitted with GraphPad Prism 6.0. For STAT1 transactivation domain (TAD), 750 ng of GST-STAT1 TAD (residues 639-750) was incubated with ˜50 ng recombinant CDK8 module at 30° C. for 8 min in kinase buffer (25 mM Tris pH 8, 2 mM DTT, 100 μM cold ATP, 100 mM KCl, 10 mM MgCl2 and 2.5 μCi [γ-^32P] ATP (Perkin Elmer) per reaction). […] 12% SDS-PAGE gels were subsequently silver stained, exposed for 18 h on a Phosphor Screen and imaged (Typhoon 9400, GE Life Sciences). For pol II CTD, 400 ng of GST-CTD (murine sequence) was incubated with ˜40 ng recombinant CDK8 module, 25 ng TFIIH, or 40 ng P-TEFb at 30° C. for 60 min in kinase buffer. Kinase amounts were chosen to give similar total pol II CTD signal. 9% SDS-PAGE gels were silver stained and exposed as above. In vitro FLAG-CDK8 kinase assays used ˜40 ng kinase and 500 ng GST-CTD. For STAT1 or Smad2/3, cells were treated with compound for 1 h followed by IFN-γ or TGF-β1 for 1 h, then washed twice with cold PBS, and lysed (RIPA buffer with inhibitors R0278, P8340, P0044, P5762 Sigma-Aldrich). Standard immunoblotting was then performed with one immunoblot shown. All experiments were performed twice.

## CN(C)[C@H]1C[C@@]23CC[C@@]4(O2)C(=CC[C@@]2(C)[C@@H](c5ccc6ccncc6c5)CC[C@H]24)C=C3[C@@H](O)[C@@H]1O [CA, cortistatin A]
[1]
  pharmacokinetic properties: acceptable pharmacokinetic properties
[2]
  GI50: 9 nM
[3]
  GI50: < 10 nM
[4]
  GI50: > 1000 nM
[5]
  inhibition of STAT1 S727 phosphorylation: dose-dependently inhibited
